# Laboratory results taken from ChEMBL document CHEMBL3603817, “Potent and Selective Inhibitors of Histone Deacetylase-3 Containing Chiral Oxazoline Capping Groups and a N-(2-Aminophenyl)-benzamide Binding Unit” (J Med Chem, 2015).
# Key:
# Assay type in all cases: physicochemical
# [1] = Distribution coefficient, log D of the compound by HPLC method; conditions: octanol/water
# [2] = Lipophilicity, log P of the compound; conditions: octanol/water
# [3] = Solubility by CLND method
logD [1],logP [2],solubility kinetic [3] [µg/mL],SMILES
3.42,3.84,≥ 131,Nc1ccccc1NC(=O)c1ccc(CNC2=NC(c3cccc(F)c3)CO2)cc1 (stereo not drawn)
3.09,3.76,≥ 151,Nc1ccccc1NC(=O)c1ccc(CNC2=N[C@H](c3ccccc3)CO2)cc1
2.96,2.96,107,Nc1ccccc1NC(=O)c1ccc(CNc2nccc(-c3cccnc3)n2)cc1 [MOCETINOSTAT]
2.79,3.58,98,Nc1ccccc1NC(=O)c1ccc(CNC2=NC[C@@H](c3ccccc3)O2)cc1
3.1,3.74,–,Nc1ccccc1NC(=O)c1ccc(CNC2=N[C@@H](c3ccccc3)CO2)cc1
–,3.97,147,Nc1ccccc1NC(=O)c1ccc(CNC2=NC(c3ccc(F)cc3)CO2)cc1 (stereo not drawn)
3.19,3.32,108,Nc1ccccc1NC(=O)c1ccc(CSC2=N[C@@H](c3cccnc3)CO2)cc1
5.29,5.59,7,Nc1ccccc1NC(=O)c1ccc(CNC2=NC(c3ccccc3)(c3ccccc3)CO2)cc1
5.01,5.41,6,Nc1ccccc1NC(=O)c1ccc(CNC2=N[C@@H](c3ccccc3)[C@H](c3ccccc3)O2)cc1
1.71,1.78,≥ 124,Nc1ccccc1NC(=O)c1ccc(CNC2=N[C@@H](c3cccnc3)CO2)cc1
4.54,4.72,8,Nc1ccccc1NC(=O)c1ccc(CNC2=NC(c3ccc(C(F)(F)F)cc3)CO2)cc1 (stereo not drawn)

# Further lines, the compound ahead of its results:
SMILES,logD [1],logP [2],solubility kinetic [3] [µg/mL]
Nc1ccccc1NC(=O)c1ccc(CNC2=N[C@@H](c3ccccc3)CN2)cc1,1.92,3.46,≥ 70
Nc1ccccc1NC(=O)c1ccc(CSC2=N[C@@H](c3ccccc3)CN2)cc1,3.49,4.31,116
Nc1ccccc1NC(=O)c1ccc(CNC2=N[C@H](c3ccccc3)[C@H](c3ccccc3)O2)cc1,4.54,5.01,73
Nc1ccccc1NC(=O)c1ccc(CNC2=NC[C@H](c3ccccc3)O2)cc1,2.99,3.84,77
Nc1ccccc1NC(=O)c1ccc(CNC2=N[C@H](Cc3c[nH]cn3)CO2)cc1,0.89,0.93,≥ 158
Nc1ccccc1NC(=O)c1ccc(CSC2=N[C@@H](Cc3ccccc3)CO2)cc1,5.41,5.67,31
Nc1ccccc1NC(=O)c1ccc(CNC2=N[C@@H](c3ccc(O)cc3)CO2)cc1,1.74,2.13,≥ 130
Nc1ccccc1NC(=O)c1ccc(CNC2=N[C@@H](Cc3ccccc3)CO2)cc1,2.86,4.15,≥ 148
Nc1ccccc1NC(=O)c1ccc(CNC2=N[C@@H](Cc3c[nH]cn3)CO2)cc1,0.9,0.95,≥ 142
